How the values were obtained:
Type in all cases: in vivo
[1] = Bitterness reduction of a bitter substance solution (expert sensory panel), naringin; conditions: 100 ppm Naringin; for Bitter-Eindruck (1-10) mit Testsubstanz: scale 1 [nicht bitter] to 10 [extrem bitter]
Excerpt: (§1) Um die Reduzierung (d.h. die Maskierung oder Verminderung) des Bitter-Eindrucks in einer Probe zu quantifizieren, wurde die Bitterkeit einer Lösung enthaltend 500 ppm Coffein oder 300 ppm Theobromin oder 100 ppm Naringin von einer Expertengruppe jeweils mit einer Probe verglichen, die 500 ppm Coffein oder 300 ppm Theobromin oder 100 ppm Naringin und zusätzlich die jeweils angegebene Menge einer (hinsichtlich der Fähigkeit zur Bitter-Reduzierung) zu beurteilenden Substanz enthielt (Einstufung: 1 [nicht bitter] bis 10 [extrem bitter]). Für die Auswertung, d.h. die Berechnung der Reduktion (in %) des Bittereindrucks wurden jeweils die Durchschnittswerte der Einschätzungen der Expertengruppe verwendet. Die Ergebnisse sind in Tabelle 1 zusammengefasst: Tabelle 1 Bitter-reduzierung einer Bitterstofflösung

[2] = Bitterness reduction of a bitter substance solution (expert sensory panel), caffeine; conditions: 500 ppm Coffein; for Bitter-Eindruck (1-10) mit Testsubstanz: scale 1 [nicht bitter] to 10 [extrem bitter]
Excerpt: as §1

[3] = Bitterness reduction of a bitter substance solution (expert sensory panel), theobromine; conditions: 25 ppm test substance, 300 ppm Theobromin; for Bitter-Eindruck (1-10) mit Testsubstanz: scale 1 [nicht bitter] to 10 [extrem bitter]
Excerpt: as §1

SMILES	% Reduktion des Bitter-Eindrucks (Signifikanz) ([1]; 25 ppm test substance, p < 0,0001)	Bitter-Eindruck (1-10) mit Testsubstanz ([1]; 25 ppm test substance, without test substance 6,6 ± 2,0)	% Reduktion des Bitter-Eindrucks (Signifikanz) ([2]; 10 ppm test substance, p < 0,0007)	Bitter-Eindruck (1-10) mit Testsubstanz ([2]; 10 ppm test substance, without test substance 3,8 ± 1,3)	Bitter-Eindruck (1-10) mit Testsubstanz ([3]; without test substance 3,6 ± 2,0)	% Reduktion des Bitter-Eindrucks (Signifikanz) ([3]; without test substance 3,6 ± 2,0, p < 0,25)	% Reduktion des Bitter-Eindrucks (Signifikanz) ([1]; 50 ppm test substance, p < 0,02)	Bitter-Eindruck (1-10) mit Testsubstanz ([1]; 50 ppm test substance, without test substance 5,0 ± 2,0)	% Reduktion des Bitter-Eindrucks (Signifikanz) ([2]; 50 ppm test substance, p < 0,35)	Bitter-Eindruck (1-10) mit Testsubstanz ([2]; 50 ppm test substance, without test substance 3,5 ± 1,4)	Bitter-Eindruck (1-10) mit Testsubstanz ([3]; without test substance 4,2 ± 2,2)
O=C1C[C@@H](c2ccncc2)c2c(O)cc(O)cc2O1 (racemic) [(1) + (2), (4S)-5,7-dihydroxy-4-(4-pyridyl)chroman-2-on (1) und (4R)-5,7-dihydroxy-4-(4-pyridyl)chroman-2-on (2)]	52,1 % (p < 0,0001)	3,2 + 1,5	37,0 % (p < 0,0007)	2,4 + 1,0	2,9 ± 1,4	19,4 % (p < 0,25)	–	–	–	–	–
O=C1C[C@@H](c2cccnc2)c2c(O)cc(O)cc2O1 (racemic) [(3) + (4), (4S)-5,7-dihydroxy-4-(3-pyridyl)chroman-2-on (3) und (4R)-5,7-dihydroxy-4-(3-pyridyl)chroman-2-on (4)]	–	–	–	–	–	–	34,1 % (p < 0,02)	3,3 ± 1,8	13,7% (p < 0,35)	3,1 ± 1,7	3,4 ± 1,8

— patent EP2725026A1, “Heterocyclic neoflavonoids with taste masking properties” (Symrise AG, priority 2012, dated 2014)
